Legend:
[1] = pKa of hindered amines by non-aqueous titration; type: physicochemical; conditions: extrapolated from calibration plot
Excerpt: The pKa measurements of the hindered amines are obtained by non-aqueous titration. Organic reference materials with known pKa values in water, are titrated in non-aqueous media (1:1 acetonitrile:chloroform and 0.1 N perchloric acid/dioxane titrant system) to generate a non-aqueous calibration plot of half-neutralization potential (HNP) versus pKa. The "unknown" hindered amines are then titrated to determine the HNP, and extrapolated to obtain the corresponding pKa from this calibration plot.

[2] = Discoloration (delta E), Dry XAW, two-pass compounded clear PC/ABS (Example 6); conditions: in words
Procedure: Accelerated weathering is performed using an Atlas Ci65A Weather-o-meter ("XAW"), operated in either "Dry XAW" mode (ASTM G26-90 method C) or interior auto ("IAXAW") (black panel temperature 89° C., light/dark cycle 3.8 hr/1.0 hr; irradiance 0.55 watt/m^2, inner filter-quartz, outer filter--high borate.
Yellowness Index and delta E color are performed as per ASTM D-1925, using a Chroma-Sensor CS-5 Colorimeter, operated at 10 degree, small area view, specular included.
This polymer blend is prepared by two-step compounding. The hindered amine is extrusion compounded with ABS on a 18 mm twin screw extruder with set temperatures (throat to die, ° C.) of 170/200/215/225/225/225. The ABS is optionally redried then extrusion compounded with an equal weight of polycarbonate to achieve a 50/50 wt/wt ratio blend. TINUVIN® 234 is added during the second extrusion compounding step although the UV absorber can also be added during the first compounding step.
Thereafter, chip impact bars are prepared and subjected to dry XAW accelerated weathering. The samples are removed at selected intervals for color measurement and then for destructive chip impact testing.

[3] = Weight loss of additive by thermogravimetric analysis (TGA); type: physicochemical; conditions: 5° C./min, nitrogen; for Temperature at which stated weight loss of additive occurs, 5%: 5% weight loss; for Temperature at which stated weight loss of additive occurs, 10%: 10% weight loss
Procedure: Weight loss data for the hindered amines are obtained by thermogravimetric analysis on a DuPont model 2100 analyzer, operated at a scan rate of 5° C./min in a nitrogen atmosphere using 4-5 mg sample in aluminum pans.

SMILES: CC1(C)CN(CCN(c2nc(N(CCN3CC(C)(C)NC(C)(C)C3=O)C3CCCCC3)nc(N(CCN3CC(C)(C)NC(C)(C)C3=O)C3CCCCC3)n2)C2CCCCC2)C(=O)C(C)(C)N1 [GOODRITE ® 3150, 1,3,5-tris{N-cyclohexyl-N-[2-(3,3,5,5-tetramethylpiperazin-2-on-1-yl)ethyl]amino}-s-triazine]
- Approximate pKa [1]: ~6.7
- color stability [2]: reasonably equivalent color stability
- Temperature at which stated weight loss of additive occurs, 5% [3]: 345 °C
- Temperature at which stated weight loss of additive occurs, 10% [3]: 362 °C

SMILES: CCCCCCCCON1C(C)(C)CC(OC(=O)CCCCCCCCC(=O)OC2CC(C)(C)N(OCCCCCCCC)C(C)(C)C2)CC1(C)C [TINUVIN ® 123, bis(1-octyloxy-2,2,6,6-tetramethylpiperidin-4-yl) sebacate]
- Approximate pKa [1]: ~4.4
- Temperature at which stated weight loss of additive occurs, 5% [3]: 222 °C
- Temperature at which stated weight loss of additive occurs, 10% [3]: 236 °C

SMILES: CC(C)(c1ccccc1)c1cc(-n2nc3ccccc3n2)c(O)c(C(C)(C)c2ccccc2)c1 [TINUVIN® 234, 2-(2-hydroxy-3,5-di-α-cumylphenyl)-2H-benzotriazole]
- color stability [2]: reasonably equivalent color stability

SMILES: CC1(C)CC(OC(=O)CCCCCCCCC(=O)OC2CC(C)(C)NC(C)(C)C2)CC(C)(C)N1 [TINUVIN ® 770, bis(2,2,6,6-tetramethylpiperidin-4-yl) sebacate]
- Approximate pKa [1]: ~9.0
- Temperature at which stated weight loss of additive occurs, 1% ([3]; 1% weight loss (printed in 5% column)): 200 °C
- Temperature at which stated weight loss of additive occurs, 10% [3]: 260 °C

SMILES: CN1C(C)(C)CN(CCN(c2nc(N(CCN3CC(C)(C)N(C)C(C)(C)C3=O)C3CCCCC3)nc(N(CCN3CC(C)(C)N(C)C(C)(C)C3=O)C3CCCCC3)n2)C2CCCCC2)C(=O)C1(C)C [GOODRITE ® 3159, 1,3,5-tris{N-cyclohexyl-N-[2-(3,3,4,5,5-pentaamethylpiperazin-2-on-1-yl)ethyl]amino}-s-triazine]
- Approximate pKa [1]: ~6.1
- Temperature at which stated weight loss of additive occurs, 2% ([3]; 2% weight loss (printed in 5% column)): 319 °C
- Temperature at which stated weight loss of additive occurs, 10% [3]: 372 °C

From patent US5990208A, “Stabilization of polycarbonate/ABS blends with mixtures of hindered amines and UV absorbers” (Ciba Specialty Chemicals Corporation, priority 1997, dated 1999)
